Species on record: Rattus norvegicus
Experiment: Open TG-GATES - Regimen: Single
Assay type: toxicity, organism-based, Sprague-Dawley
Parameters: regimen Single, gender Male, age 6 weeks
Settings: in vivo, po, route gavage; for APTT / Bas / Eos / Fbg / Hb / Ht / Lym / MCH / MCHC / MCV / Mono / Neu / PT / Plat / RBC / Ret / WBC: tissue Blood; for KIDNEY_L / KIDNEY_R / KIDNEY_TOTAL: tissue Kidney; for LIVER: tissue Liver; for ALP / ALT / AST / BUN / CRE / Ca / DBIL / GLC / K / LDH / Na / PL / RALB / TBIL / TC / TG / TP / gamma-GTP / IP: tissue Plasma
[1] = 0 mg/kg, 3 h, dose level Control
[2] = 0 mg/kg, 6 h, dose level Control
[3] = 0 mg/kg, 9 h, dose level Control
[4] = 0 mg/kg, 24 h, dose level Control

Structure (SMILES): Oc1ncnc2[nH]ncc12 [ALLOPURINOL]
- TERMINAL_BW [1]: 209.8 g
- APTT [1]: 16.7 s
- Bas [1]: 0%
- Eos [1]: 0.8%
- Fbg [1]: 211 mg/dL
- Hb [1]: 14 g/dL
- Ht [1]: 41.7%
- Lym [1]: 73.2%
- MCH [1]: 21.9 pg
- MCHC [1]: 33.7%
- MCV [1]: 65.1 fL
- Mono [1]: 7.4%
- Neu [1]: 18.6%
- PT [1]: 12.3 s
- Plat [1]: 111.5 x10_4/uL
- RBC [1]: 641.2 x10_4/ul
- Ret [1]: 8.1%
- WBC [1]: 95.8 x10_2/uL
- KIDNEY_L [1]: 1 g
- KIDNEY_R [1]: 1 g
- KIDNEY_TOTAL [1]: 1.9 g
- LIVER [1]: 10.1 g
- ALP [1]: 925 IU/L
- ALT [1]: 30.8 IU/L
- AST [1]: 60 IU/L
- BUN [1]: 12 mg/dL
- CRE [1]: 0.5 mg/dL
- Ca [1]: 10.9 mg/dL
- DBIL [1]: 0.058 mg/dL
- GLC [1]: 189.4 mg/dL
- K [1]: 4.8 meq/L
- LDH [1]: 96.6 IU/L
- Na [1]: 139.2 meq/L
- PL [1]: 137.4 mg/dL
- RALB [1]: 3.7 g/dL
- TBIL [1]: 0.4 mg/dL
- TC [1]: 71.8 mg/dL
- TG [1]: 59.4 mg/dL
- TP [1]: 5.6 g/dL
- gamma-GTP [1]: 1.4 IU/L
- TERMINAL_BW [2]: 210 g
- APTT [2]: 16.3 s
- Bas [2]: 0%
- Eos [2]: 1%
- Fbg [2]: 212.6 mg/dL
- Hb [2]: 14.1 g/dL
- Ht [2]: 42%
- Lym [2]: 80%
- MCH [2]: 22.2 pg
- MCHC [2]: 33.4%
- MCV [2]: 66.3 fL
- Mono [2]: 5.6%
- Neu [2]: 13.6%
- PT [2]: 12.3 s
- Plat [2]: 111.5 x10_4/uL
- RBC [2]: 634 x10_4/ul
- Ret [2]: 8.2%
- WBC [2]: 98.8 x10_2/uL
- KIDNEY_L [2]: 0.9 g
- KIDNEY_R [2]: 0.9 g
- KIDNEY_TOTAL [2]: 1.8 g
- LIVER [2]: 9.5 g
- ALP [2]: 787 IU/L
- ALT [2]: 31.8 IU/L
- AST [2]: 62.2 IU/L
- BUN [2]: 11.2 mg/dL
- CRE [2]: 0.4 mg/dL
- Ca [2]: 11.1 mg/dL
- DBIL [2]: 0.032 mg/dL
- GLC [2]: 185.4 mg/dL
- K [2]: 5 meq/L
- LDH [2]: 96.6 IU/L
- Na [2]: 139 meq/L
- PL [2]: 132 mg/dL
- RALB [2]: 3.8 g/dL
- TBIL [2]: 0.3 mg/dL
- TC [2]: 71.8 mg/dL
- TG [2]: 54.4 mg/dL
- TP [2]: 5.6 g/dL
- gamma-GTP [2]: 0.8 IU/L
- TERMINAL_BW [3]: 204.6 g
- APTT [3]: 16.6 s
- Bas [3]: 0%
- Eos [3]: 1%
- Fbg [3]: 221.2 mg/dL
- Hb [3]: 13.8 g/dL
- Ht [3]: 41.1%
- Lym [3]: 71.4%
- MCH [3]: 21.8 pg
- MCHC [3]: 33.7%
- MCV [3]: 64.8 fL
- Mono [3]: 9.6%
- Neu [3]: 18%
- PT [3]: 12.3 s
- RBC [3]: 633.4 x10_4/ul
- Ret [3]: 7.5%
- WBC [3]: 81.8 x10_2/uL
- KIDNEY_L [3]: 0.9 g
- KIDNEY_R [3]: 0.9 g
- KIDNEY_TOTAL [3]: 1.9 g
- LIVER [3]: 9 g
- ALP [3]: 761 IU/L
- ALT [3]: 28.6 IU/L
- AST [3]: 61.2 IU/L
- BUN [3]: 12.4 mg/dL
- CRE [3]: 0.4 mg/dL
- DBIL [3]: 0.018 mg/dL
- GLC [3]: 197.8 mg/dL
- IP [3]: 11.2 mg/dL
- K [3]: 4.7 meq/L
- Na [3]: 139.2 meq/L
- PL [3]: 136.4 mg/dL
- RALB [3]: 3.8 g/dL
- TBIL [3]: 0.4 mg/dL
- TC [3]: 73 mg/dL
- TG [3]: 48 mg/dL
- TP [3]: 5.7 g/dL
- gamma-GTP [3]: 1.2 IU/L
- TERMINAL_BW [4]: 223.3 g
- APTT [4]: 16.3 s
- Bas [4]: 0.2%
- Eos [4]: 0.8%
- Fbg [4]: 219 mg/dL
- Hb [4]: 13.4 g/dL
- Ht [4]: 39.8%
- Lym [4]: 72%
- MCH [4]: 21.8 pg
- MCHC [4]: 33.6%
- MCV [4]: 65 fL
- Mono [4]: 12.4%
- Neu [4]: 14.8%
- PT [4]: 12 s
- Plat [4]: 110.8 x10_4/uL
- RBC [4]: 613.4 x10_4/ul
- Ret [4]: 8.1%
- WBC [4]: 97 x10_2/uL
- KIDNEY_L [4]: 1 g
- KIDNEY_R [4]: 1 g
- KIDNEY_TOTAL [4]: 2 g
- ALP [4]: 987.2 IU/L
- ALT [4]: 31.2 IU/L
- AST [4]: 63.4 IU/L
- BUN [4]: 18 mg/dL
- CRE [4]: 0.5 mg/dL
- DBIL [4]: 0.02 mg/dL
- GLC [4]: 193.2 mg/dL
- IP [4]: 8.4 mg/dL
- K [4]: 5.1 meq/L
- LDH [4]: 94 IU/L
- Na [4]: 138 meq/L
- PL [4]: 153.4 mg/dL
- RALB [4]: 3.8 g/dL
- TBIL [4]: 0.3 mg/dL
- TC [4]: 81.6 mg/dL
- TG [4]: 99 mg/dL
- TP [4]: 5.7 g/dL
- gamma-GTP [4]: 1.2 IU/L
- TERMINAL_BW (15 mg/kg, 3 h, dose level Low): 213.7 g

— ChEMBL document CHEMBL3885861, “Open TG-GATES”
